From patent US6221914A, “Sulfonamide bridging compounds that inhibit tryptase activity” (Array Biopharma Inc., priority 1998, dated 2001)

Assays:
Type in all cases: biochemical
Human plasma kallikrein = biological target: T1, Human plasma kallikrein (Homo sapiens, UniProt P03952); experiment: Ki determination, human plasma kallikrein (H-D-Prolyl-Phe-Arg-pNA); conditions: 50 mM Tris-HCl, pH 7.8, 200 mM NaCl, 0.05% BSA; read-out: Experimentally Determined Ki, Plasma Kallikrein
T1 construct: from tissue; host or cells: human plasma
Protocol: (§1) Protease inhibition was assayed according to published procedures with minor modifications using various proteases and specific chromogenic peptide p-nitroanilide substrates. Assays were performed in Costar ultra-low cluster 96-well microtiter plate (Costar Corning Corp., Cambridge Mass.). Each protease was incubated with various concentrations of the test compound for 15 min. at 37° C. or as otherwise indicated, in specific assay buffer, and the residual activity was then measured by addition of the substrate. p-Nitroaniline produced by the proteolysis was determined by measuring the change in absorbance at 405 nm on a SpectraMAX 340 plate reader (Molecular devices, Sunnyvale, Calif.).
(§2) 1. The inhibition constant, Ki is calculated from individual data points using the equation for a tight-binding inhibitor (See Beith, "Proteinase Inhibitors-Proceedings of 2nd Int. Res. Conference", Fritz, et al. eds, New York, p.4463-4469 (1974)):
(§3) vi /vo [((Ki '+[I]+[E]o)^2 -4 [I]o
(§4) [E]o)^1/2 (Ki '+[I]o -[E]o)]/2[E]o
(§5) where Ki ' is apparent inhibition constant; vi and vo are the inhibited and uninhibited rates, respectively; [I]o and [E]o are the total concentrations of inhibitor and enzyme, respectively.
(§6) [note: [E]o is determined by active site titration of enzyme]
(§7) The Ki values are obtained by correcting Ki ' values for the effect of substrate concentration according to: [formula]
(§8) 2. Other inhibition data (Ki >>[E]o), the Ki is calculated from using the equations for a competitive inhibitor: [formula]
I. Human Plasma and r-Tissue Kallikrein
Human plasma and r-tissue kallikrein activity were determined in 50 mM Tris-HCl, pH 7.8, 200 mM NaCl, 0.05% BSA by using H-D-Prolyl-Phe-Arg-pNA and DL-Val-Leu-Arg-pNA, respectively (See Lottenberg, et al., Meth. Enzymol. 80, 341-361 (1981)).
(§9) The inhibition constant (Ki) of the test compounds against each proteolytic enzyme was determined according to Zitnik et al., Biochem. Biophys. Res. Commun. 232, 687-697 (1997)).

[1] = biological target: T2, Human Neutrophil Cathepsin G (Homo sapiens, UniProt P08311); experiment: Ki determination, human neutrophil cathepsin G (N-Suc-Ala-Ala-Pro-Phe-pNA); conditions: 625 mM Tris-HCl, pH 7.5, 2.5 mM MgCl2, 0.125% Brij 35; read-out: Experimentally Determined Ki, Cathepsin G
T2 construct: from tissue; host or cells: human neutrophils
T2 sequence (P08311 21-255): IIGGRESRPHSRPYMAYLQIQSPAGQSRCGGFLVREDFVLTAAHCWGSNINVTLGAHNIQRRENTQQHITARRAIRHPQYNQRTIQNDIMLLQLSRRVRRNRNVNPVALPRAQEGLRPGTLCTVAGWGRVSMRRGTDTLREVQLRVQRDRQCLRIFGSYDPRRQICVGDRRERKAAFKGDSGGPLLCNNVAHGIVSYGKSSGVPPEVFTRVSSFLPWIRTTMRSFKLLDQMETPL
Protocol: as §1, §2, §3, §4, §5, §6, §7, §8
Human Neutrophil Cathepsin G activity was determined by using N-Suc-Ala-Ala-Pro-Phe-pNA in 625 mM Tris-HCl, pH 7.5, 2.5 mM MgCl2, 0.125% Brij 35 (See Groutas et al., Arch. Biochem. Biophys. 294, 144-146 (1992)).
as §9

Human lung tryptase = experiment: Ki determination, human lung tryptase (Tosyl-Gly-Pro-Arg-pNA substrate); conditions: 50 mM Tris-HCl pH 8.0, 37° C., 1 nM tryptase, 320 μM GPR-pNA; read-out: Experimentally Determined Ki, Tryptase
Protocol: as §1, §2, §3, §4, §5, §6, §7, §8
Human lung tryptase purchased from Cortex Biochem (San Leandro, Calif.) was purified further on a Superdex 200 gel-filtration column. The active-site concentration of the enzyme was determined by spectrophotometric titration with 4-nitrophenyl 4'-guanidinobenzoate according to Schwartz, et al., J. Immunol., 114, 2304-2311 (1990). Tryptase activity was measured according to the procedures of Schwartz, et al., J. Biol. Chem., 261, 7372-7379 (1986) (See also, Schwartz, L. B., Methods In Enzymology, 244, 88 (1994)) with minor modifications, using Tosyl-Gly-Pro-Arg-p-nitroanilide ("GPR-pNA", Sigma Chemical Co., St. Louis, Mo., T-1637) as a chromogenic substrate. The reaction was performed in 50 mM Tris-HCl, pH 8.0, containing 150 mM NaCl and 0.02% Triton X-100 at 37° C. in Costar ultra-low cluster 96-well microtiter plates (Costar Corning Corp., Cambridge, Mass.). The amount of pNA produced by tryptase was determined by measuring the change in absorbance at 405 nm on a SpectraMAX 340 plate reader (Molecular devices, Sunnyvale, Calif.). The Km for the substrate was determined by Lineweaver-Burk analysis from initial velocities of substrate hydrolysis. The inhibition assay was carried out in a total volume of 200 μL. Tryptase (30 μL- final concentration 1 nM) was incubated with various concentrations of sample compound (50 μL) to be tested in the above assay buffer for 5 min. The reaction was started by the addition of substrate GPR-pNA (40 μL-final concentration 320 μM), and the residual activity was measured after 15 min. of incubation. The inhibition constant, Ki, was determined by fitting the inhibition data to a two-site competitive binding equation using data analysis program GraphPad PRISM (GraphPad Software, Inc., San Diego, Calif.).
as §9

T1 sequence (P03952 391-638 limits assumed): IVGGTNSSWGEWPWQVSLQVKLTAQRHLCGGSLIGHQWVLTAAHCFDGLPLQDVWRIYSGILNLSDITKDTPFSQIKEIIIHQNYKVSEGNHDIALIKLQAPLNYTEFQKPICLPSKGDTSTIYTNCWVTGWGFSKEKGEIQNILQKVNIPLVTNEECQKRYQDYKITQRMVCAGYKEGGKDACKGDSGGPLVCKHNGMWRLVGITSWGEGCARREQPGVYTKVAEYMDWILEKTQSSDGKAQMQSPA
T1 sequence (P03952 20-390 partner limits assumed): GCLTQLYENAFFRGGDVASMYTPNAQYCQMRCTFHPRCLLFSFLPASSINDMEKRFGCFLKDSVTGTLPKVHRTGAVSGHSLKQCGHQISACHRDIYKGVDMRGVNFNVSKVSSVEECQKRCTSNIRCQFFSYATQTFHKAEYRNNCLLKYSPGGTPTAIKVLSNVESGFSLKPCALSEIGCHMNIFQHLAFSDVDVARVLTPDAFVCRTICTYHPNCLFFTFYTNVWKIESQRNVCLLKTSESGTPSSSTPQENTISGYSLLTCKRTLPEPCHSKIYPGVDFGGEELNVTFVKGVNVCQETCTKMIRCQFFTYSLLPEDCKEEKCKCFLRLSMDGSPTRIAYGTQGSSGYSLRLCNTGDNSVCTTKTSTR

Question: How did the Ki (Human plasma kallikrein) turn out when `N=C(N)c1cccc(S(=O)(=O)NCc2ccc(OCCCCCOc3ccc(CNS(=O)(=O)c4cccc(C(=N)N)c4)cc3)cc2)c1` [Example 41, 1,5-Bis-{4-[(3-carbamimidoyl-benzenesulfonylamino)-methyl]-phenoxy}-pentane] was run?
Answer: 18 µM

Question: And the Ki [1]?
Answer: > 100 µM

Question: What about the Ki (Human lung tryptase) of the same compound?
Answer: 0.08 µM

Question: `N=C(N)c1cccc(S(=O)(=O)NCc2ccc(OCCCCCCOc3ccc(CNS(=O)(=O)c4cccc(C(=N)N)c4)cc3)cc2)c1` [Example 43, 1,6-Bis-{4-[(3-carbamimidoyl-benzenesulfonylamino)-methyl]-phenoxy}-hexane] was tested. Which Ki (Human plasma kallikrein) did it give?
Answer: > 100 µM

Question: What about the Ki [1] of the same compound?
Answer: > 100 µM

Question: What about the Ki (Human lung tryptase) of the same compound?
Answer: 0.11 µM

Question: Which Ki (Human plasma kallikrein) does the source give for `N=C(N)c1cccc(S(=O)(=O)NCc2ccc(OCCCCCCCOc3ccc(CNS(=O)(=O)c4cccc(C(=N)N)c4)cc3)cc2)c1` [Example 45, 1,7-Bis-{4-[(3-carbamimidoyl-benzenesulfonylamino)-methyl]-phenoxy}-heptane] here?
Answer: 34 µM

Question: And the Ki [1]?
Answer: > 100 µM

Question: And the Ki (Human lung tryptase)?
Answer: 0.8 µM

Question: Which Ki (Human plasma kallikrein) does the source give for `N=C(N)c1cccc(S(=O)(=O)NCc2ccc(OCCCCOc3ccc(CNS(=O)(=O)c4cccc(C(=N)N)c4)cc3)cc2)c1` [Example 47, 1,4-Bis-{4-[(3-carbamimidoyl-benzenesulfonylamino)-methyl]-phenoxy}-butane] here?
Answer: 2.5 µM

Question: And the Ki [1]?
Answer: > 100 µM

Question: And the Ki (Human lung tryptase)?
Answer: 0.03 µM

Question: What does the source list for `N=C(N)c1cccc(S(=O)(=O)NCc2ccc(OCCCOc3ccc(CNS(=O)(=O)c4cccc(C(=N)N)c4)cc3)cc2)c1` [Example 49, 3,1-Bis-{4-[(3-carbamimidoyl-benzenesulfonylamino)-methyl]-phenoxy}-propane]?
Answer: Ki (Human plasma kallikrein): 6 µM; Ki [1]: > 100 µM; Ki (Human lung tryptase): 0.02 µM

Question: With `N=C(N)c1ccc(S(=O)(=O)NCc2ccc(OCCCOc3ccc(CNS(=O)(=O)c4ccc(C(=N)N)cc4)cc3)cc2)cc1` [Example 50, 1,3-Bis-{4-[(4-carbamimidoyl-benzenesulfonylamino)-methyl]-phenoxy}-propane] as the compound, how does the Ki (Human plasma kallikrein) read?
Answer: > 100 µM

Question: What about the Ki [1] of the same compound?
Answer: > 100 µM

Question: And the Ki (Human lung tryptase)?
Answer: 0.8 µM

Question: Which Ki (Human plasma kallikrein) does the source give for `N=C(N)c1cccc(S(=O)(=O)NCc2ccc(OCCOc3ccc(CNS(=O)(=O)c4cccc(C(=N)N)c4)cc3)cc2)c1` [Example 51, 1,2-Bis-{4-[(3-carbamimidoyl-benzenesulfonylamino)-methyl]-phenoxy}-ethane] here?
Answer: 12 µM

Question: And the Ki [1]?
Answer: > 100 µM

Question: And the Ki (Human lung tryptase)?
Answer: 0.03 µM

Question: Which results are given for `N=C(N)c1cccc(S(=O)(=O)NCc2ccc(COCc3ccc(CNS(=O)(=O)c4cccc(C(=N)N)c4)cc3)cc2)c1` [Example 53, 1,3-Bis-{4-[(3-carbamimidoyl-benzenesulfonylamino)-methyl]-phenyl}-2-oxapropane]?
Answer: Ki (Human plasma kallikrein): 8.8 µM; Ki [1]: > 100 µM; Ki (Human lung tryptase): 0.1 µM

Question: How did the Ki (Human plasma kallikrein) turn out when `N=C(N)c1ccc(C(=O)NCc2ccc(OCCCCCOc3ccc(CNC(=O)c4ccc(C(=N)N)cc4)cc3)cc2)cc1` [Example 54, 1,5-Bis-{4-[(4-carbamimidoyl-benzenecarbonylamino)-methyl]-phenoxy}-pentane] was run?
Answer: 16 µM

Question: What about the Ki [1] of the same compound?
Answer: > 100 µM

Question: `N=C(N)c1cccc(C(=O)NCc2ccc(OCCCCCOc3ccc(CNC(=O)c4cccc(C(=N)N)c4)cc3)cc2)c1` [Example 55, 1,5-Bis-{4-[(3-carbamimidoyl-benzenecarbonylamino)-methyl]-phenoxy}-pentane] was tested. Which Ki (Human plasma kallikrein) did it give?
Answer: 11 µM

Question: And the Ki [1]?
Answer: > 100 µM

Question: What about the Ki (Human lung tryptase) of the same compound?
Answer: 0.01 µM

Question: How did the Ki [1] turn out when `N=C(N)c1ccc(C(=O)NCc2ccc(OCCCCCCOc3ccc(CNC(=O)c4ccc(C(=N)N)cc4)cc3)cc2)cc1` [Example 56, 1,6-Bis-{4-[(4-carbamimidoyl-benzenecarbonylamino)-methyl]-phenoxy}-hexane] was run?
Answer: > 100 µM

Question: What does the source list for `N=C(N)c1cccc(C(=O)NCc2ccc(OCCCCCCOc3ccc(CNC(=O)c4cccc(C(=N)N)c4)cc3)cc2)c1` [Example 57, 1,6-Bis-{4-[(3-carbamimidoyl-benzenecarbonylamino)-methyl]-phenoxy}-hexane]?
Answer: Ki [1]: > 100 µM; Ki (Human lung tryptase): 0.01 µM

Question: Which Ki (Human plasma kallikrein) does the source give for `N=C(N)c1ccc(C(=O)NCc2ccc(OCCCCCCCOc3ccc(CNC(=O)c4ccc(C(=N)N)cc4)cc3)cc2)cc1` [Example 58, 1,7-Bis-{4-[(4-carbamimidoyl-benzenecarbonylamino)-methyl]-phenoxy}-heptane] here?
Answer: 46 µM

Question: And the Ki [1]?
Answer: > 100 µM

Question: And the Ki (Human lung tryptase)?
Answer: 0.001 µM

Question: `N=C(N)c1cccc(C(=O)NCc2ccc(OCCCCCCCOc3ccc(CNC(=O)c4cccc(C(=N)N)c4)cc3)cc2)c1` [Example 59, 1,7-Bis-{4-[(3-carbamimidoyl-benzenecarbonylamino)-methyl]-phenoxy}-heptane] was tested. Which Ki (Human plasma kallikrein) did it give?
Answer: 72 µM

Question: What about the Ki [1] of the same compound?
Answer: > 100 µM

Question: What about the Ki (Human lung tryptase) of the same compound?
Answer: 0.08 µM

Question: With `N=C(N)c1ccc(C(=O)NCc2ccc(OCCCCOc3ccc(CNC(=O)c4ccc(C(=N)N)cc4)cc3)cc2)cc1` [Example 60, 1,4-Bis-{4-[(4-carbamimidoyl-benzenecarbonylamino)-methyl]-phenoxy}-butane] as the compound, how does the Ki (Human plasma kallikrein) read?
Answer: 6.3 µM

Question: And the Ki [1]?
Answer: > 100 µM

Question: What about the Ki (Human lung tryptase) of the same compound?
Answer: 0.0002 µM

Question: Which Ki (Human plasma kallikrein) does the source give for `N=C(N)c1cccc(C(=O)NCc2ccc(OCCCCOc3ccc(CNC(=O)c4cccc(C(=N)N)c4)cc3)cc2)c1` [Example 61, 1,4-Bis-{4-[(3-carbamimidoyl-benzenecarbonylamino)-methyl]-phenoxy}-butane] here?
Answer: 7.7 µM

Question: And the Ki [1]?
Answer: > 100 µM

Question: And the Ki (Human lung tryptase)?
Answer: 0.01 µM

Question: What does the source list for `N=C(N)c1ccc(C(=O)NCc2ccc(OCCCOc3ccc(CNC(=O)c4ccc(C(=N)N)cc4)cc3)cc2)cc1` [Example 62, 1,3-Bis-{4-[(4-carbamimidoyl-benzoylamino)-methyl]-phenoxy}-propane]?
Answer: Ki (Human plasma kallikrein): 2.9 µM; Ki [1]: > 100 µM; Ki (Human lung tryptase): 0.0005 µM

Question: Which results are given for `N=C(N)c1cccc(C(=O)NCc2ccc(OCCCOc3ccc(CNC(=O)c4cccc(C(=N)N)c4)cc3)cc2)c1` [Example 63, 1,3-Bis-{4-[(3-carbamimidoyl-benzoylamino)-methyl]-phenoxy}-propane]?
Answer: Ki [1]: > 100 µM; Ki (Human lung tryptase): 0.02 µM

Question: What does the source list for `N=C(N)c1ccc(C(=O)NCc2ccc(OCCOc3ccc(CNC(=O)c4ccc(C(=N)N)cc4)cc3)cc2)cc1` [Example 64, 1,2-Bis-{4-[(4-carbamimidoyl-benzoylamino)-methyl]-phenoxy}-ethane]?
Answer: Ki (Human plasma kallikrein): 7.3 µM; Ki [1]: > 100 µM; Ki (Human lung tryptase): 0.05 µM

Question: For `N=C(N)c1cccc(C(=O)NCc2ccc(OCCOc3ccc(CNC(=O)c4cccc(C(=N)N)c4)cc3)cc2)c1` [Example 65, 1,2-Bis-{4-[(3-carbamimidoyl-benzoylamino)-methyl]-phenoxy}-ethane], which Ki (Human plasma kallikrein) is on record?
Answer: 24 µM

Question: What about the Ki [1] of the same compound?
Answer: > 100 µM

Question: What about the Ki (Human lung tryptase) of the same compound?
Answer: 0.35 µM

Question: What does the source list for `N=C(N)c1ccc(C(=O)NCc2ccc(COCc3ccc(CNC(=O)c4ccc(C(=N)N)cc4)cc3)cc2)cc1` [Example 66, 1,3-Bis-{4-[(4-carbamimidoyl-benzenecarbonylamino)-methyl]-phenyl}-2-oxapropane]?
Answer: Ki (Human plasma kallikrein): 0.7 µM; Ki (Human lung tryptase): 0.38 µM
